Measurements published in paper PMC11563196 (Chemical communications (Cambridge, England), 2024).

What was measured:
[1] = target: T1, HDAC1 (Homo sapiens, UniProt Q13547); assay: HDAC1 abundance by quantitative fluorescence western blotting in HCT116 cells; assay type: cell-based; conditions: for Dose response degradation of HDAC1: 24 h, 0.01-10 μM, two independent biological replicates; for HDAC1 abundance: at 0.1 μM and 1 μM
T1 construct: endogenous in cells; host or cells: HCT116 (ATCC CCL-247)
Experimental: (§1) We screened these compounds side-by side with JPS004 a VHL based HDAC1–3 targeting PROTAC and the HDAC1–3 inhibitor CI-994 as control compounds for degradation and inhibition, respectively. […] HCT116 cells were incubated for 24 hours with the compounds and HDAC1, HDAC2 and HDAC3 abundance was quantified by fluorescence western blotting. We also determined the effects on Histone 3 Lysine 56 acetylation (H3K56ac) levels as a secondary assay, for in-cell HDAC inhibition or degradation. […] Similar to our previous observations with VHL recruiting PROTACs, HDAC2 reduction was less affected. It was noteworthy that 7 also incorporated a 12 carbon alkyl linker, which has been an effective linker in our previous studies.[10],[11] Pleasingly, compounds 3–8 also had more modest effects on HDAC3 abundance compared to previously reported VHL recruiting PROTACs.[6]–[13] […] However, while surprising, it is not unprecedented as we and others have observed similar effects on histone acetylation markers with HDAC3 targeting PROTACs.[11],[13],[18]
(§2) Fig. 3 HDAC1, HDAC2, HDAC3 abundance were determined by quantitative western blotting with antibodies for HDAC1, HDAC2, HDAC3 in HCT116 cells after 24 hours. H3K56 acetylation levels were also determined by quantitative western blotting with an antibody for H3K56ac, and the fold change was compared between compounds at 10 μM, normalising treatment with inhibitor CI 994 = 1.0.
(§3) Supplementary Information: Biology
(§4) 1. Cell Culture, Compound Handling and Western Blotting Protocols
(§5) The HCT116 cell line used in this study was obtained from ATCC (CCL-247). HCT116 human colon carcinoma cells were grown in a Dulbecco’s modified Eagle medium (GIBCO, 41965-039) supplemented with 10% FBS (Sigma) and 1X glutamine/penicillin/streptomycin (GIBCO, 10378−016). Cells were incubated at 37 °C with 5% CO2. Cells were treated with compounds at indicated concentrations (0.01−10 μM). All compounds were made up to a standard solution of 10 mM in DMSO, serially diluted in DMSO, then added to fresh medium (5 mL total) to afford the concentrations stated (0.01−10 μM), with a final DMSO volume of […]
HCT116 cells were seeded into 6-well plates (4 × 10^5 cells/well) for 24 hours and then treated with DMSO or compounds at the indicated concentrations in fresh medium (5 mL total). After 24 hours treatment time, the cells were harvested and then lysed in lysis buffer (50 mM Tris-HCl, 150 mM NaCl, 0.5% NP-40, 0.5% Triton X-100) supplemented with a protease inhibitor (Sigma, P8340). The suspension was incubated on ice for 30 min, then centrifuged (18,000 rcf, 15 min, 4 °C) and the supernatant collected. Protein concentrations were quantified via Bradford Assay using Protein Assay Dye Reagent Concentrate (BIO-RAD). […] Western blots were run on NuPAGE 4−12% bis−Tris gels with 30 μg of protein or 10 μL of ac id-extracted histone loaded per lane, using NuPAGE LDS sample buffer (4X). PageRuler Plus Prestained Ladder was used for size standards. After gel electrophoresis at 140 V for 90 min, the separated proteins were transferred onto a nitrocellulose membrane at 30 V for 60 min. The membranes were probed with primary antibodies (as indicated below) for 60−90 min. Blots were developed with complimentary IRDye®-conjugated secondary antibodies, and the bands were visualized using an Odyssey infrared imaging system. Image processing and band intensity quantification were performed using Image Studio Lite.
(§6) 2. Western Blotting Results
(§7) 2.1. Western Blotting Analysis of Compounds 3-15 from Initial Screen
(§8) Figure S1. Western blotting of HDAC1/2/3 proteins in HCT116 cells treated with compounds 3-15.
(§9) (1 picture or pasted object on this page, not shown here)

[2] = target: T2, HDAC2 (Homo sapiens, UniProt Q92769); assay: HDAC2 abundance by quantitative fluorescence western blotting in HCT116 cells; assay type: cell-based; conditions: for Dose response degradation of HDAC2: 24 h, 0.01-10 μM, two independent biological replicates; for HDAC2 abundance / HDAC2 abundance / degradation: initial screen, 24 hours; for HDAC2 abundance: at 0.1 μM and 1 μM
T2 construct: endogenous in cells; host or cells: HCT116 (ATCC CCL-247)
Experimental: as §1, §2, §3, §4, §5
(§10) HCT116 cells were seeded into 6-well plates (4 × 10^5 cells/well) for 24 hours and then treated with DMSO or compounds at the indicated concentrations in fresh medium (5 mL total). After 24 hours treatment time, the cells were harvested and then lysed in lysis buffer (50 mM Tris-HCl, 150 mM NaCl, 0.5% NP-40, 0.5% Triton X-100) supplemented with a protease inhibitor (Sigma, P8340). The suspension was incubated on ice for 30 min, then centrifuged (18,000 rcf, 15 min, 4 °C) and the supernatant collected. Protein concentrations were quantified via Bradford Assay using Protein Assay Dye Reagent Concentrate (BIO-RAD). For histone extraction, an equal volume of 0.4 N H2SO4 was added to the pellets, and the extracts were placed at 4 °C overnight, centrifuged (18,000 rcf, 15 min, 4 °C), then the supernatant (histone extract) collected.
(§11) Western blots were run on NuPAGE 4−12% bis−Tris gels with 30 μg of protein or 10 μL of ac id-extracted histone loaded per lane, using NuPAGE LDS sample buffer (4X). PageRuler Plus Prestained Ladder was used for size standards. After gel electrophoresis at 140 V for 90 min, the separated proteins were transferred onto a nitrocellulose membrane at 30 V for 60 min. The membranes were probed with primary antibodies (as indicated below) for 60−90 min. Blots were developed with complimentary IRDye®-conjugated secondary antibodies, and the bands were visualized using an Odyssey infrared imaging system. Image processing and band intensity quantification were performed using Image Studio Lite.
as §6, §7, §8, §9

[3] = target: T3, HDAC3 (Homo sapiens, UniProt O15379); assay: HDAC3 abundance by quantitative fluorescence western blotting in HCT116 cells; assay type: cell-based; conditions: for Dose response degradation of HDAC3: 24 h, 0.01-10 μM, two independent biological replicates; for HDAC3 abundance / degradation: initial screen, 24 hours
T3 construct: endogenous in cells; host or cells: HCT116 (ATCC CCL-247)
Experimental: as §1, §2, §3, §4, §5, §10, §11, §6, §7, §8, §9

[4] = tested on: HDAC1; parameters: method as in PMID 35008795; conditions: cited from earlier work
[5] = tested on: HDAC2; parameters: method as in PMID 35008795; conditions: cited from earlier work
[6] = tested on: HDAC3; parameters: method as in PMID 35008795; conditions: cited from earlier work
[7] = tested on: HDAC3; parameters: method as in PMID 35293758; conditions: previous findings; cited from earlier work
[8] = tested on: H3K56ac; assay: Histone 3 Lysine 56 acetylation (H3K56ac) levels by quantitative western blotting in HCT116 cells; assay type: cell-based, human; conditions: for H3K56 acetylation levels: rescreen with methylated controls (Fig. 4C); for H3K56ac levels: initial screen, HCT116 cells, 24 hours, fold change compared at 10 μM
Experimental: as §1, §2, §3, §4, §5, §10
as §11, with “Blots were developed with complimentary IRDye®-conjugated secondary antibodies, and the bands were visualized using an Odyssey infrared imaging system.” left out, “Lite. […]” for “Lite.”

[9] = tested on: HDAC1; parameters: method as in PMID 35293758; conditions: previous findings; cited from earlier work
[10] = tested on: HDAC2; parameters: method as in PMID 35293758; conditions: previous findings; cited from earlier work

T2 sequence (Q92769 whole entry): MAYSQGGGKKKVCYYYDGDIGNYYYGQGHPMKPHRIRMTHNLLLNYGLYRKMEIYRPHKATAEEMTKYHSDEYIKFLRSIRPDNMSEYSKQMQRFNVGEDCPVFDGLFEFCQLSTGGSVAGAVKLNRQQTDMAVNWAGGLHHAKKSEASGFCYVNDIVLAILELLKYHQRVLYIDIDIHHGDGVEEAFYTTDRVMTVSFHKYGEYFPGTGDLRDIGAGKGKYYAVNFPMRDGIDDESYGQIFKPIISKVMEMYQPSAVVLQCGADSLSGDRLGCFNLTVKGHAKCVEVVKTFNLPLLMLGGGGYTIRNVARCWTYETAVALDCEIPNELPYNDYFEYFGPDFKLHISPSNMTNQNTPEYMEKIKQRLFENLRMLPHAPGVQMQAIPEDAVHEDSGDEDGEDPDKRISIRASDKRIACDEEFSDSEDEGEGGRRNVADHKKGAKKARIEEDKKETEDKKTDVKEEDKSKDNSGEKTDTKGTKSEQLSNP
T3 sequence (O15379 whole entry): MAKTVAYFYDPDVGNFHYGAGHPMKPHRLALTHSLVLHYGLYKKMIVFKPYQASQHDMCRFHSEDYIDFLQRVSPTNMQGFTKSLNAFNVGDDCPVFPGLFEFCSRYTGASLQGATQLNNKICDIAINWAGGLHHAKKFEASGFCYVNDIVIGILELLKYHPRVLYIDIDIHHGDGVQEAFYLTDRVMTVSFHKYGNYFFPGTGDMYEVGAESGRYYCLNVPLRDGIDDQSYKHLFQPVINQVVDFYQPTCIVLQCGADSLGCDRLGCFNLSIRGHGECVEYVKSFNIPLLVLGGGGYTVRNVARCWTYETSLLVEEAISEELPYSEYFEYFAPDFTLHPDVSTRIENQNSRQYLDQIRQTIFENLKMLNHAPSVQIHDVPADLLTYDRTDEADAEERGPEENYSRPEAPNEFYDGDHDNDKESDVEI
T3 sequence (Q9Y618 whole entry partner): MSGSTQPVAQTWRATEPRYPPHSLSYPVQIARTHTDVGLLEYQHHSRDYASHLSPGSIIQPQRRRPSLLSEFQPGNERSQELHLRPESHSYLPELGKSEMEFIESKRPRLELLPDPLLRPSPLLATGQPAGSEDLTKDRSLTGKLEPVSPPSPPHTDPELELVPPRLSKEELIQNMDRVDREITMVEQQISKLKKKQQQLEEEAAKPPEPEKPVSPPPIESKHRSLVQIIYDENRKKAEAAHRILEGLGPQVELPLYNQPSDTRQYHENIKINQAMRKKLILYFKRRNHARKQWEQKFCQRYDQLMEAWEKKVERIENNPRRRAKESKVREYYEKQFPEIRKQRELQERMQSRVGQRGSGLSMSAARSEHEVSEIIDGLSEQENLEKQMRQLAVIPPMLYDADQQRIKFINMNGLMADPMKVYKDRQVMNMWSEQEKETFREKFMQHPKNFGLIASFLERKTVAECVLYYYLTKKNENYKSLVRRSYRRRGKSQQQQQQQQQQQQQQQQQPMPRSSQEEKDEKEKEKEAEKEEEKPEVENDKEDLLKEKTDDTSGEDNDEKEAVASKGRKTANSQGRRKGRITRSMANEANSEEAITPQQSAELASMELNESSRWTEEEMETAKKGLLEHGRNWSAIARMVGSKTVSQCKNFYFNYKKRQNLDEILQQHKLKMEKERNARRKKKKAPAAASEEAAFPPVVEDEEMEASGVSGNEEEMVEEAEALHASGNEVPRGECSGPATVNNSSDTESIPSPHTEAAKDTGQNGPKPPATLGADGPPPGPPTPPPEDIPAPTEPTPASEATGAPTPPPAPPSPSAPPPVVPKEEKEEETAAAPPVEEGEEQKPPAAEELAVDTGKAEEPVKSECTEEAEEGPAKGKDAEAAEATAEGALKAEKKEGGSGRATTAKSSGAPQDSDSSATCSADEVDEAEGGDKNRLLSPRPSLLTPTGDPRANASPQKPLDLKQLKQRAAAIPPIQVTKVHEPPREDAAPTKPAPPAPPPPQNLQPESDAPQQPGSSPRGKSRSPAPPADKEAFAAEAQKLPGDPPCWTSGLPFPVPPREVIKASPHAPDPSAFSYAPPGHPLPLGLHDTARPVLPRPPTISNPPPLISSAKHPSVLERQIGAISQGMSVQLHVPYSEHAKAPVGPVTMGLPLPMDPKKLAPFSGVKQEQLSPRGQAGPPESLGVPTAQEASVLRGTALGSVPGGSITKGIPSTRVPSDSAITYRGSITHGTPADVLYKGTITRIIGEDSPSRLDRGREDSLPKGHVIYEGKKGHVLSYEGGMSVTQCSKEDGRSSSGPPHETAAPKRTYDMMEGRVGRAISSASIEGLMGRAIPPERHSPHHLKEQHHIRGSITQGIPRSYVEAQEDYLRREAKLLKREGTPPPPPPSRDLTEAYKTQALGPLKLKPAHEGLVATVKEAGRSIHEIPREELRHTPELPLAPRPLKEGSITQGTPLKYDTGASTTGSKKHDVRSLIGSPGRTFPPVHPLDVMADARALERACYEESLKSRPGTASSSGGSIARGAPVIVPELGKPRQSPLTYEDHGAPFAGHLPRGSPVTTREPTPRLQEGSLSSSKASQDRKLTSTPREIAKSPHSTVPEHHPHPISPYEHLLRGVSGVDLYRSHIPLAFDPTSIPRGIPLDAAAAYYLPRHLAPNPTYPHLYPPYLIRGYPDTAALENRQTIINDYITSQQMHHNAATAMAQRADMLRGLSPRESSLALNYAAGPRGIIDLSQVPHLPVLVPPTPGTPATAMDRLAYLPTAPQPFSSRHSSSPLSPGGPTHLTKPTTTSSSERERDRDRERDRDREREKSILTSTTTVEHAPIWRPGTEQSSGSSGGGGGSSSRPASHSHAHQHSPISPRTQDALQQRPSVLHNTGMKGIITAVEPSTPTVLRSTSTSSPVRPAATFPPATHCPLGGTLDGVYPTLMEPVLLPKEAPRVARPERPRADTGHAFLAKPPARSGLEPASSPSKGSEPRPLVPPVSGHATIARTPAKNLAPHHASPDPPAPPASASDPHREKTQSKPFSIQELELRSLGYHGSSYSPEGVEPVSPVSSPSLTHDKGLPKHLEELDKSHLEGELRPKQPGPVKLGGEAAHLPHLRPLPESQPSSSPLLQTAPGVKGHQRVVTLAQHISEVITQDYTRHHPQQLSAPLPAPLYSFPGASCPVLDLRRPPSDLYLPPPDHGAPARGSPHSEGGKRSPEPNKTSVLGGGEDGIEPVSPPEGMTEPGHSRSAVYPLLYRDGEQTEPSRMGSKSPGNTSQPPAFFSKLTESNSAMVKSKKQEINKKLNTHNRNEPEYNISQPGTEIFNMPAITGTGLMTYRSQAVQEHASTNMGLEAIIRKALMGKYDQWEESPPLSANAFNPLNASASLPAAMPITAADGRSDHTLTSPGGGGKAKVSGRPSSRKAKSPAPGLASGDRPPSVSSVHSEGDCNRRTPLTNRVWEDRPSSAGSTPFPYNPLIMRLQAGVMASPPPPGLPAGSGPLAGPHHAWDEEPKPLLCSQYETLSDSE
T1 sequence (Q13547 whole entry): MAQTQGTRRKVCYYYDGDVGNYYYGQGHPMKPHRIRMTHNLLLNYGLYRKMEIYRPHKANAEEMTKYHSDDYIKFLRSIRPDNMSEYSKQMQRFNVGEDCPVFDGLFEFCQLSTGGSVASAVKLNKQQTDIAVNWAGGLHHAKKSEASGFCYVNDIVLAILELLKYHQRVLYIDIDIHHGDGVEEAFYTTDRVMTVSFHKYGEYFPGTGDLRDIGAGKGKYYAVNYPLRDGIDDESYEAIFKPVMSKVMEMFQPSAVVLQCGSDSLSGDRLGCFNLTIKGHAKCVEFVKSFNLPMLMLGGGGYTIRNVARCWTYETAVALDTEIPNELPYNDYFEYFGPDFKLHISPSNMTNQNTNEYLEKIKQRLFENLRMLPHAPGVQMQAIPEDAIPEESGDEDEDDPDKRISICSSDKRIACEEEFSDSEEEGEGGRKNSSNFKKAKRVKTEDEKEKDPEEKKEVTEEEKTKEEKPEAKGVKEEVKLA

Nc1ccc(-c2ccc(F)cc2)cc1NC(=O)c1cnc(N2CCN(C(=O)CCC3CCN(c4cccc5c4C(=O)N(C4CCC(=O)NC4=O)C5=O)CC3)CC2)cn1 (stereo not shown) [Compound 12]
Dose response degradation of HDAC1 [1]: very similar dose dependent degradation of HDAC1 and HDAC2 to 5 | degradation selectivity (HDAC1 over HDAC3) ([1]; 24 hours): selective degradation of HDAC1 over HDAC3 | HDAC1 abundance ([1]; initial screen, 24 hours): reduced | Dose response degradation of HDAC2 [2]: very similar dose dependent degradation of HDAC1 and HDAC2 to 5 | HDAC2 abundance [2]: reduced | Dose response degradation of HDAC3 [3]: HDAC3 degradation was abolished | HDAC3 abundance / degradation [3]: no HDAC3 degradation

Nc1ccc(-c2ccc(F)cc2)cc1NC(=O)c1cnc(N2CCNCC2)cn1 [Compound 1]
IC50 [4]: 160 nM | IC50 [5]: 340 nM | IC50 [6]: 6700 nM

Nc1ccc(-c2ccc(F)cc2)cc1NC(=O)c1cnc(N2CCN(C(=O)CCCCCCCCCCCNc3cccc4c3C(=O)N(C3CCC(=O)NC3=O)C4=O)CC2)cn1 (stereo not shown) [Compound 14]
HDAC1 abundance / degradation ([1]; initial screen, 24 hours): less effective at HDAC1 degradation compared to 11 and 12

Cc1ncsc1-c1ccc(CNC(=O)[C@@H]2C[C@@H](O)CN2C(=O)[C@@H](NC(=O)C2(F)CC2)C(C)(C)C)c(OCCCCCCCCCCCC(=O)Nc2ccc(C(=O)Nc3ccccc3N)cc2)c1 [JPS036]
HDAC3 degradation selectivity over HDAC1/2 [7]: can enhance HDAC3 degradation selectivity over HDAC1/2

Nc1ccccc1NC(=O)c1cnc(N2CCN(C(=O)CCC3CCN(c4cccc5c4C(=O)N(C4CCC(=O)NC4=O)C5=O)CC3)CC2)cn1 (stereo not shown) [Compound 5]
Dose response degradation of HDAC1 [1]: dose dependent degradation | Dose response degradation of HDAC2 [2]: dose dependent degradation | Dose response degradation of HDAC3 [3]: a hook effect was observed | H3K56 acetylation levels [8]: increasing H3K56ac levels

Nc1ccccc1NC(=O)c1cnc(N2CCN(C(=O)CCCCCCCC(=O)NCCNc3cccc4c3C(=O)N(C3CCC(=O)NC3=O)C4=O)CC2)cn1 (stereo not shown) [Compound 9]
HDAC1 abundance / degradation ([1]; initial screen, 24 hours): no effects | HDAC2 abundance / degradation [2]: no effects | HDAC3 abundance / degradation [3]: no effects | H3K56ac levels [8]: increase H3K56ac levels to greater levels than DMSO controls

Cc1ncsc1-c1ccc(CNC(=O)[C@@H]2C[C@@H](O)CN2C(=O)[C@@H](NC(=O)COCCCCCCCCCOCC(=O)Nc2ccc(C(=O)Nc3ccccc3N)cc2)C(C)(C)C)cc1 [JPS016]
HDAC1 degradation [9]: degrade | HDAC2 degradation [10]: degrade | HDAC3 degradation [7]: hook effect for HDAC3

Nc1ccc(-c2ccc(F)cc2)cc1NC(=O)c1cnc(N2CCN(C(=O)CCCCCCCC(=O)N3CCN(c4cccc5c4C(=O)N(C4CCC(=O)NC4=O)C5=O)CC3)CC2)cn1 (stereo not shown) [Compound 15]
HDAC1 abundance / degradation ([1]; initial screen, 24 hours): less effective at HDAC1 degradation compared to 11 and 12

Nc1ccccc1NC(=O)c1cnc(N2CCN(C(=O)CCCCCCCCCCCNc3cccc4c3C(=O)N(C3CCC(=O)NC3=O)C4=O)CC2)cn1 (stereo not shown) [Compound 7]
Dose response degradation of HDAC1 [1]: clear dose dependent HDAC1 degradation | degradation selectivity (HDAC1 over HDAC3) ([1]; 24 hours): selective degradation of HDAC1 over HDAC3 | HDAC1 degradation ([1]; initial screen, 24 hours, at 1 μM): greatest HDAC1 degradation | Dose response degradation of HDAC3 [3]: minimal HDAC3 degradation | H3K56ac levels [8]: did not increase H3K56ac levels | H3K56 acetylation levels [8]: did not increase H3K56 acetylation levels

Nc1ccc(-c2ccc(F)cc2)cc1NC(=O)c1cnc(N2CCN(CCCCCCNc3cccc4c3C(=O)N(C3CCC(=O)NC3=O)C4=O)CC2)cn1 (stereo not shown) [Compound 10]
HDAC1 abundance / degradation ([1]; initial screen, 24 hours): no effects | HDAC2 abundance / degradation [2]: no effects | HDAC3 abundance / degradation [3]: no effects | H3K56ac levels [8]: increase H3K56ac levels to greater levels than DMSO controls

Cc1ncsc1-c1ccc(CNC(=O)[C@@H]2C[C@@H](O)CN2C(=O)[C@@H](NC(=O)CCCCCCCCCCC(=O)Nc2ccc(C(=O)Nc3ccccc3N)cc2)C(C)(C)C)cc1 [JPS004]
HDAC1 degradation [9]: degrade | HDAC2 degradation [10]: degrade | HDAC3 degradation [7]: HDAC3 degradation is compromised at concentrations >1 μM due to the hook effect

Nc1ccc(-c2ccc(F)cc2)cc1NC(=O)c1cnc(N2CCN(C(=O)CCCCCNc3cccc4c3C(=O)N(C3CCC(=O)NC3=O)C4=O)CC2)cn1 (stereo not shown) [Compound 11]
HDAC1 abundance ([1]; initial screen, 24 hours): reduced | HDAC2 abundance [2]: reduced | HDAC3 abundance / degradation [3]: no HDAC3 degradation
